Data on 26 compounds can be found in patent publication US9809585B2, “Fluorinated 2-arylbenzo heterocyclic compound with high affinity to Aβ 946; plaques and containing chiral side chain substituent, and preparation method and usage thereof” (BEIJING ZHIBO BIO-MEDICAL TECHNOLOGY CO.,LTD, priority 2014, dated 2017).

In one data set the target is T1, protein polymer Aβ1-42 (Homo sapiens, UniProt P05067).
T1 construct: A receptor Aβ1-42 protein is prepared by an established method
Description: Competitive binding experiment (Ki assay) against [125I]IMPY. Conditions: read-out: Ki (inhibition constant). Here is the method: Competitive binding experiment (Ki assay): Put a protein polymer Aβ1-42 of a certain concentration and a radioactive ligand [^125I] […] (5) A glass fiber filter is soaked in a PBS solution containing 0.1% (volume fraction) of polyethyleneimine for 0.5 h. (6) Add 100 μL of a solution of a compound to be tested and of different concentrations, 100 μL of the [^125I] […] Seal the tub with parafilm and swirl it. (7) Shake the tube in a water bath constantly at 37° C. and maintain the incubation for 2 h. (8) Collect the reaction solution with a multi-phase cell collector. Rinse the collected solution with the PBS for three times, 3 mL for each rinse. (9) Count with a γ counter. (10) Process the data.

Data set [1] is described as follows: In-vivo biodistribution experiment on normal mice. Also noted: species or system mice (ICR, male). Particulars: for Bones radioactivity: tail vein injection. As to the method: The in-vivo pharmacokinetic properties of mice have been studied with the in-vivo biodistribution experiment, especially the absorption by the primitive brain and the removal from the brain.
Inject 5-10 μCi of a labeled compound (100 μL of a physiological saline solution containing 5% of ethanol) into normal mice (ICR, male, 20-22 g) (n=5) by tail vein injection. The mice are decapitated respectively 2 minutes, 10 minutes, 30 minutes and 60 minutes after the injection. Dissect the mice and take out the relevant organs. Measure the moisture content and the radioactivity amount. The measurement values represent the percentage of the radioactivity amount in an organ (% ID/organ) and the percentage of the radioactivity amount in the organ of one gram (% ID/g).

T1 sequence (P05067 672-713 limits assumed): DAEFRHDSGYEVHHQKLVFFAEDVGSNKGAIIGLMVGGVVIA

The Ki is a dissociation constant, usually derived from enzyme kinetics or from competition with a known ligand. Turning to `CNc1ccc(-c2nc3ccc(OC[C@@H](O)CF)cc3s2)cc1` [Compound 14r], on protein polymer Aβ1-42, the Ki turned out to be 0.0272 ± 0.0029 µM.

In the case of `CNc1ccc(-c2nc3ccc(OC[C@H](O)CF)cc3s2)cc1` [Compound 14s], the Ki on protein polymer Aβ1-42 was determined as 0.026 ± 0.0065 µM.

For the compound `CN(C)c1ccc(-c2nc3ccc(OC[C@@H](O)CF)cc3s2)cc1` [Compound 15r], on protein polymer Aβ1-42, the Ki came out at 0.0032 ± 0.0011 µM.

`CN(C)c1ccc(-c2nc3ccc(OC[C@H](O)CF)cc3s2)cc1` [Compound 15s]: the Ki at protein polymer Aβ1-42 was determined as 0.0037 ± 0.0011 µM.

Turning to `CNc1ccc(-c2nc3ccc(OC[C@@H](O)CF)cc3s2)cn1` [Compound 16r], the inhibitory constant (Ki) on protein polymer Aβ1-42 was 0.0099 ± 0.0028 µM.

With `CNc1ccc(-c2nc3ccc(OC[C@H](O)CF)cc3s2)cn1` [Compound 16s], the Ki at protein polymer Aβ1-42 came to 0.0454 ± 0.0118 µM.

Take `CN(C)c1ccc(-c2nc3ccc(OC[C@@H](O)CF)cc3s2)cn1` [Compound 17r]: the Ki at protein polymer Aβ1-42 came out at 0.0111 ± 0.0054 µM.

In the case of `CN(C)c1ccc(-c2nc3ccc(OC[C@H](O)CF)cc3s2)cn1` [Compound 17s], the inhibition constant Ki on protein polymer Aβ1-42 is 0.0272 ± 0.0071 µM.

`CNc1ccc(-c2nc3ccc(OC[C@@H](O)CF)cc3o2)cc1` [Compound 18r]: the inhibitory constant (Ki) at protein polymer Aβ1-42 was determined as 0.129 ± 0.0402 µM.

Consider `CNc1ccc(-c2nc3ccc(OC[C@H](O)CF)cc3o2)cc1` [Compound 18s], for which the Ki at protein polymer Aβ1-42 was found to be 0.103 ± 0.0186 µM.

In the case of `CN(C)c1ccc(-c2nc3ccc(OC[C@@H](O)CF)cc3o2)cc1` [Compound 19r], the inhibition constant (Ki) at protein polymer Aβ1-42 was determined as 0.0108 ± 0.0026 µM.

Regarding `CN(C)c1ccc(-c2nc3ccc(OC[C@H](O)CF)cc3o2)cc1` [Compound 19s], the inhibition constant Ki on protein polymer Aβ1-42 stood at 0.011 ± 0.0015 µM.

Take `CNc1ccc(-c2nc3cc(OC[C@@H](O)CF)ccc3o2)cc1` [Compound 28r]: the inhibitory constant (Ki) at protein polymer Aβ1-42 came to 0.0853 ± 0.0052 µM.

On to `CNc1ccc(-c2nc3cc(OC[C@H](O)CF)ccc3o2)cc1` [Compound 28s], for which the inhibition constant (Ki) on protein polymer Aβ1-42 was determined as 0.0673 ± 0.0055 µM.

Turning to `CN(C)c1ccc(-c2nc3cc(OC[C@@H](O)CF)ccc3o2)cc1` [Compound 29r], at protein polymer Aβ1-42, the inhibition constant (Ki) stood at 0.0076 ± 0.0028 µM.

Regarding `CN(C)c1ccc(-c2nc3cc(OC[C@H](O)CF)ccc3o2)cc1` [Compound 29s], the inhibition constant (Ki) on protein polymer Aβ1-42 was found to be 0.0155 ± 0.0032 µM.

With `CNc1ccc(-c2nc3cc(OC[C@@H](O)CF)ccc3o2)cn1` [Compound 30r], the Ki on protein polymer Aβ1-42 stood at 0.187 ± 0.039 µM.

As for `CNc1ccc(-c2nc3cc(OC[C@H](O)CF)ccc3o2)cn1` [Compound 30s], at protein polymer Aβ1-42, the inhibition constant (Ki) turned out to be 0.196 ± 0.0491 µM.

As for `CN(C)c1ccc(-c2nc3cc(OC[C@@H](O)CF)ccc3o2)cn1` [Compound 31r], the inhibitory constant (Ki) at protein polymer Aβ1-42 was determined as 0.0272 ± 0.0063 µM.

In the case of `CN(C)c1ccc(-c2nc3cc(OC[C@H](O)CF)ccc3o2)cn1` [Compound 31s], at protein polymer Aβ1-42, the inhibition constant Ki was 0.0574 ± 0.0076 µM.

With `CN(C)c1ccc(-c2nc3ccc(OC[C@@H](O)C[18F])cc3s2)cc1` [Compound [^18F]15r], the Bones radioactivity amounted to 2.43 ± 0.53 % ID/g in data set [1] (2 min.), 2.31 ± 0.26 % ID/g in data set [1] (10 min), 1.42 ± 0.27 % ID/g in data set [1] (30 min) and 1.12 ± 0.59 % ID/g in data set [1] (1 h).

Consider `CN(C)c1ccc(-c2nc3ccc(OC[C@H](O)C[18F])cc3s2)cc1` [Compound [^18F]15s], for which the Bones radioactivity turned out to be 2.31 ± 0.71 % ID/g in data set [1] (2 min.), 1.82 ± 0.39 % ID/g in data set [1] (10 min), 1.45 ± 0.48 % ID/g in data set [1] (30 min) and 1.08 ± 0.38 % ID/g in data set [1] (1 h).

With `CNc1ccc(-c2nc3cc(OC[C@@H](O)C[18F])ccc3o2)cc1` [Compound [^18F]28r], the Bones radioactivity in data set [1] (2 min.) is listed as 1.41 ± 0.29 % ID/g; in data set [1] (10 min), 1.79 ± 0.21 % ID/g; in data set [1] (30 min), 1.19 ± 0.15 % ID/g; in data set [1] (1 h), 3.05 ± 0.86 % ID/g.

For `CNc1ccc(-c2nc3cc(OC[C@H](O)C[18F])ccc3o2)cc1` [Compound [^18F]28s], the Bones radioactivity in data set [1] (2 min.) is given as 1.63 ± 0.44 % ID/g; in data set [1] (10 min), 0.77 ± 0.11 % ID/g; in data set [1] (30 min) it was 0.52 ± 0.16 % ID/g; in data set [1] (1 h), 0.74 ± 0.13 % ID/g.

Regarding `CN(C)c1ccc(-c2nc3cc(OC[C@@H](O)C[18F])ccc3o2)cc1` [Compound [^18F]29r], the Bones radioactivity in data set [1] (2 min.) worked out at 2.12 ± 0.60 % ID/g; in data set [1] (10 min), 1.24 ± 0.40 % ID/g; in data set [1] (30 min), 1.36 ± 0.41 % ID/g; in data set [1] (1 h) it was 1.93 ± 0.77 % ID/g.

With `CN(C)c1ccc(-c2nc3cc(OC[C@H](O)C[18F])ccc3o2)cc1` [Compound [^18F]29s], the “removal from the brain” value in data set [1] is reported as “quickly removed from the brain of normal mice”. The “ratio of the absorption in 2 minutes to that in 60 minutes (brain)” value in data set [1] (brain) amounted to 27.8. Further, the Bones radioactivity came out at 2.06 ± 0.45 % ID/g in data set [1] (2 min.), 0.99 ± 0.35 % ID/g in data set [1] (10 min), 0.85 ± 0.30 % ID/g in data set [1] (30 min) and 1.13 ± 0.28 % ID/g in data set [1] (1 h).
